# Experimental data: patent US11986464B2, “5HT3R antagonist for use in treating aneurysms and cardiovascular risk” (University of Kentucky Research Foundation, priority 2021, dated 2024)
# Assays:
# [1] = test system: AngII-infused XY male Ldlr−/− mice (XYM); assay: AngII-induced aortic pathology (DTA, AA) and aortic weights; format: in vivo; conditions: for mean weight of the aortas: 7 days then 28 days with AngII 1,000 ng/kg/min, ±SEM
# Method: Tropisetron (Trop) is an exemplary 5HT3R antagonist used in these studies.^136 Effects of Trop were tested against AngII-induced aortic pathology in XY male Ldlr−/− mice (XYM). […] Mice were fed a Western diet (high fat, high sucrose, high cholesterol) beginning one week prior to the start of treatments. XYM Ldlr−/− mice were administered two different doses of Trop (10 or 20 mg/kg/day) by osmotic minipump for 7 days. The minipumps were then replaced with new pumps containing both AngII (1,000 ng/kg/min) and Trop and treatment was continued for 28 days. Aortas were removed from the iliac bifurcation to the end of the arch and fixed in formalin. Aortas were then cleaned and weighed.
# [2] = test system: AngII-infused XYM Ldlr−/− mice; assay: Ultrasound internal lumen diameters of abdominal aortas; format: in vivo; conditions: for average internal lumen diameter of abdominal aorta on Day 27: ultrasound, ±SEM, in mm (unit assumed)
# Method: (§1) Male mice (XYM Ldlr−/−) were fed a Western diet (high fat, high sucrose, high cholesterol) beginning one week prior to the start of treatments. XYM Ldlr−/− mice were then administered two different doses of Trop (10 or 20 mg/kg/day) by osmotic minipump for 7 days. The minipumps were then replaced with new pumps containing both AngII (1,000 ng/kg/min) and Trop and treatment was continued for 28 days.
# Internal lumen diameters of abdominal aortas from AngII treated mice treated with either dose of tropisetron were smaller than those from the AngII alone group after 27 days of treatment (FIG. 18). The average diameters on Day 27 were: AngII=1.77±0.35; Trop 10=1.32±0.23; Trop 20=1.20±0.28 (±SEM, *P<0.05 compared to AngII). The average diameters in all three groups increased from their baseline values with the AngII group having the largest increase followed by the Trop 20 and then Trop 10 group. […] An increase of 50% or more is considered an aneurysm.
# [3] = test system: AngII-infused XYM Ldlr−/− mice; assay: Incidence and grading of AngII-induced abdominal aortic aneurysms; format: in vivo; conditions: for mice with Abdominal Aneurysm Grade 0: 0 = no aneurysm; for mice with Abdominal Aneurysm Grade 4: 4 being a rupture
# Method: as §1
# [4] = test system: AngII-infused XYM Ldlr−/− mice; assay: Systolic and diastolic blood pressure induced by AngII; format: in vivo; conditions: for mean systolic blood pressure: ±SEM
# Method: as §1
# Blood pressures were taken on five consecutive days. Measurements from the last three days were used to calculate blood pressures for each group. The mean systolic blood pressures are in mm Hg (±SEM): AngII=149±3.4; Trop 10=146±5.6; Trop 20=128±4.4. The mean diastolic blood pressures were in mm Hg: AngII=86±4.0; Trop 10=83±6.0; Trop 20=70±4.1 (FIG. 21).
# [5] = test system: AngII-infused XYM Ldlr−/− mice; assay: Maximal external diameters of excised abdominal aortas; format: in vivo; conditions: ±SEM
# Method: as §1, with “28 days. External abdominal aortic diameters were quantified on excised, cleaned tissue mounted on a black wax background. A Nikon SMZ800 dissecting microscope was used to obtain aorta images and the maximal external diameter of the abdominal aorta was measured using Nikon NIS-Elements Version 5.2.” for “28 days.”
# [6] = test system: AngII-infused XYM Ldlr−/− mice; assay: Atherosclerosis quantified en face (aortic arch, thoracic aorta); format: in vivo
# Method: as §1
# Atherosclerosis was quantified en face in the aortic arch. Briefly, the entire length of the aorta was removed and the intimal surface exposed, in its entirety, by a longitudinal cut through the inner curvature of the aortic arch and down the anterior aspect of the remaining aorta. A cut is also made through the greater curvature of the aortic arch to the subclavian branch. The tissue is then pinned to a dark surface. Arch areas were defined by drawing a 3-mm line from the left subclavian artery. The intimal area of the aortic arch was defined as the region from the orifice of innominate artery to the orifice of the left subclavian artery. Thoracic areas were defined by drawing a 9 mm line from the end of the arch area to the diaphragm muscle. Atherosclerotic areas were quantified by drawing a line around the borders and summing the total area of each. Lesions were summed and divided by the total arch or thoracic area to calculate the percent lesion area. Measurements were performed using Nikon NIS-Elements Version 5.2.
# [7] = test system: AngII-infused XYM Ldlr−/− mice; assay: Serum cholesterol and triglycerides by enzymatic assay kits; format: in vivo; conditions: in mg/dL (unit assumed)
# Method: as §1, with “28 days. Concentrations of total serum cholesterol, triglycerides and free fatty acids were quantified (blood collected from cardiac puncture) using enzymatic assay kits.” for “28 days.”
# [8] = test system: AngII-infused XXF and XYM Ldlr−/− mice; conditions: nicotine 4 mg/kg/day co-infused with AngII 1,000 ng/kg/min
# Method: (§2) Mice were fed a Western diet beginning one week prior to co-infusion of AngII (1,000 ng/kg/min) and nicotine (4 mg/kg/day^130). Ultrasound as used to quantify internal lumen diameters of AA to calculate the percentage of mice with pathology (50% increase compared to day 0 of infusions; FIG. 12A). […] Aortas were harvested for RNA extraction, and thus DTA maximal diameters could not be quantified at study endpoint.
# Htr3a mRNA = conditions: nicotine co-infused with AngII, compared to AngII
# Method: as §2
# To define potential mechanisms for these effects, and whether they are linked to 5HT3R, Htr3a mRNA abundance was quantified in DTA and AA of XXF and XYM AngII-infused mice.
# [9] = Trop 10 or 20 mg/kg/day, compared to AngII alone
smiles,measurement,setting,value
CN1[C@@H]2CC[C@H]1C[C@@H](OC(=O)c1c[nH]c3ccccc13)C2 [Trop],mean weight of the aortas,[1]; Trop 10 mg/kg/day by osmotic minipump,0.035 g
same,mean weight of the aortas,[1]; Trop 20 mg/kg/day by osmotic minipump,0.023 g
same,percentage of AngII-induced pathology of AA,[1]; [9],dose-dependent reduction
same,percentage of AngII-induced pathology of DTA,[1]; [9],dose-dependent reduction
same,average internal lumen diameter of abdominal aorta on Day 27,[2]; Trop 10 mg/kg/day,1.32±0.23
same,percent increase in abdominal aorta diameters on Day 27 compared to Day 0,"[2]; Trop 20 mg/kg/day, compared to AngII, P<0.05",significantly different
same,average internal lumen diameter of abdominal aorta on Day 27,[2]; Trop 20 mg/kg/day,1.20±0.28
same,% Incidence of abdominal aneurysms,[3]; Trop 10 mg/kg/day,30%
same,mice with Abdominal Aneurysm Grade 1,[3]; Trop 10 mg/kg/day,3
same,mice with Abdominal Aneurysm Grade 2,[3]; Trop 10 mg/kg/day,0
same,mice with Abdominal Aneurysm Grade 3,[3]; Trop 10 mg/kg/day,0
same,mice with Abdominal Aneurysm Grade 0,[3]; Trop 10 mg/kg/day,7
same,mice with Abdominal Aneurysm Grade 4,[3]; Trop 10 mg/kg/day,0
same,% Incidence of abdominal aneurysms,[3]; Trop 20 mg/kg/day,20%
same,mice with Abdominal Aneurysm Grade 1,[3]; Trop 20 mg/kg/day,0
same,mice with Abdominal Aneurysm Grade 2,[3]; Trop 20 mg/kg/day,1
same,mice with Abdominal Aneurysm Grade 3,[3]; Trop 20 mg/kg/day,0
same,mice with Abdominal Aneurysm Grade 0,[3]; Trop 20 mg/kg/day,8
same,mice with Abdominal Aneurysm Grade 4,[3]; Trop 20 mg/kg/day,1
same,mean diastolic blood pressure,[4]; Trop 10 mg/kg/day,83±6.0 mm Hg
same,mean systolic blood pressure,[4]; Trop 10 mg/kg/day,146±5.6 mm Hg
same,mean diastolic blood pressure,[4]; Trop 20 mg/kg/day,70±4.1 mm Hg
same,mean systolic blood pressure,[4]; Trop 20 mg/kg/day,128±4.4 mm Hg
same,mean external diameter of abdominal aorta,[5]; Trop 10 mg/kg/day,1.08±0.13 mm
same,mean external diameter of abdominal aorta,[5]; Trop 20 mg/kg/day,0.87±0.11 mm
same,atherosclerosis (percent lesion area) in the thoracic aortas,[6]; tropisetron 10 mg/kg/day,14.14±6.4%
same,percent lesion surface area of the aortic arch,[6]; tropisetron 10 mg/kg/day,14.92±5.3%
same,atherosclerosis (percent lesion area) in the thoracic aortas,[6]; tropisetron 20 mg/kg/day,7.43±7.95%
same,percent lesion surface area of the aortic arch,[6]; tropisetron 20 mg/kg/day,4.24±3.5%
same,serum cholesterol level,[7]; Trop 10 mg/kg/day,1683±109.5
same,serum triglyceride level,[7]; Trop 10 mg/kg/day,652±73.6
same,serum cholesterol level,[7]; Trop 20 mg/kg/day,1437±46.7
same,serum triglyceride level,[7]; Trop 20 mg/kg/day,549±54.4
CN1CCCC1c1cccnc1 (stereo not drawn) [nicotine],percentage of mice with pathology within the AA (50% increase in internal lumen diameter compared to day 0),[8],50%
same,Htr3a mRNA abundance in AA,Htr3a mRNA; XXF and XYM mice,significant increase
same,Htr3a mRNA abundance in DTA,Htr3a mRNA,no effect
